Data from ChEMBL document CHEMBL5223135, “Guanidine-based β amyloid precursor protein cleavage enzyme 1 (BACE-1) inhibitors for the Alzheimer's disease (AD): A review” (Bioorg Med Chem, 2022).

Experiments:
[1] = Permeability in human Caco-2 cells; type: ADME, cell-based; details: read-out: permeability
[2] = n-Octanol/water partition coefficient, logP of the compound; type: physicochemical
[3] = Aqueous solubility, logS of the compound; type: physicochemical; details: buffer

Row | Compound | Papp [1] [×10⁻⁶ cm/s] | logP [2] | logS0 [3]
1 | C(=N\Nc1nnc(-c2cccs2)c(-c2cccs2)n1)/c1cc2ccccc2[nH]1 | 0.53 | – | –
2 | O=[N+]([O-])c1ccc(-n2cc(COc3ccc(/C=N/Nc4nnc(-c5ccccc5)c(-c5ccccc5)n4)cc3)nn2)cc1 | 0.53 | – | –
3 | Cn1c(N/N=C/c2cccc(Cl)c2Cl)nc2ccccc2c1=O | 0.57 | – | –
4 | N=C(Nc1cnc(F)c(F)c1)Nc1cnc(F)c(F)c1 | – | 1.76 | -2.73
